Assay results taken from patent publication US11466029B2, “Compounds useful to treat influenza virus infections” (Nanjing Zhengxiang Pharmaceuticals Co., Ltd., priority 2019, dated 2022).
“Also recorded” adds a separate entry of the source. Like-named read-outs stand apart in the source and are kept apart here.

Tests used:
A/Hongkong/8/68 (H3N2) = test: microbe, parasite or virus in culture; format: cell-based; conditions: Influenza A virus, H3N2, MDCK, 120 h
in vitro = conditions: dog
B/Florida/78/2015 = test: microbe, parasite or virus in culture; format: cell-based; conditions: Influenza B virus, 120 h
[1] = molecular target: Influenza Virus CEN PAn enzyme (UniProt P03433); format: biochemical; conditions: read-out: CEN IC50
[2] = in vivo; cited from earlier work
IFV A/WSN/33 (H1N1) = test: microbe, parasite or virus in culture; format: cell-based; conditions: Influenza A virus, MDCK, 120 h
B/Lee/40 = test: microbe, parasite or virus in culture; format: cell-based; conditions: Influenza B virus, 120 h
IFV A/PR/8/34 (H1N1) = test: microbe, parasite or virus in culture; format: cell-based; conditions: Influenza A virus, MDCK, 120 h
[3] = test system: A/California/07/2009 (H1N1)pdm09; test: microbe, parasite or virus in culture; format: cell-based; conditions: Influenza A virus, H1N1, MDCK, 120 h
[4] = Liver microsomal stability; conditions: cynomolgus monkey, liver microsomes
[5] = Liver microsomal stability; conditions: mouse, liver microsomes
[6] = Liver microsomal stability; conditions: human, liver microsomes
[7] = Liver microsomal stability; conditions: rat, liver microsomes
[8] = Liver microsomal stability; conditions: dog, liver microsomes
[9] = male CD-1 mice, plasma B-1
Procedure: (§1) B-1 was administered to male CD-1 mice (4-6 weeks old, 20-30 grams, 3 animals each group) via intravenous (IV) bolus at 1 mg/kg and by oral gavage (PO) at 10 mg/kg. […] All animals had free access to food and water prior to dosing. Blood samples (˜0.03 mL each time point) were collected via the jugular vein into tubes containing sodium heparin as the anticoagulant at 0.033, 0.083, 0.25, 0.5, 1, 2, 4, 8 and 24 hours post dose for IV administration and 0.083, 0.25, 0.5, 1, 2, 4, 8 and 24 hours post dose for PO administration. The blood samples were then centrifuged for 5 minutes in a centrifuge refrigerated at 4° C. The resultant plasma samples were analyzed using LC/MS/MS to determine concentrations of B-1. Non-compartmental model with WinNonlin (Phoenix™, version 8.0) software was used to calculate pharmacokinetic (PK) parameters.

influenza virus = format: cell-based
Pharmacokinetics in Rats = format: in vivo; set-up: AUClast: unit not given here; conditions: non-fasted male SD rats, plasma B-1
Procedure: C-1 was administered to 3 non-fasted male SD rats via oral gavage at 3 mg/kg.

in vivo [10] = conditions: male, CD-1, mouse, iv, 1 mg/kg
Procedure: as §1

influenza virus PR/8/34 = test system: influenza virus PR/8/34; set-up: species or system Balb/c mice; conditions: in vivo; for body weight loss: 5 mg/kg
A/Weiss/43 (H1N1) = test: microbe, parasite or virus in culture; format: cell-based; conditions: Influenza A virus, H1N1, MDCK, 120 h
[11] = for AUClast: plasma B-1
Procedure: (§2) B-1 was administered to male cynomolgus monkeys (2-5 years old, 2-5 kg, 3 animals each group) via intravenous (IV) bolus at 0.25 mg/kg and by oral gavage (PO) at 1 mg/kg; Animals in the IV group had free access to food and water (non-fasted) and animals in the PO group were fasted overnight prior to dosing (fasted). C-1 was administered to male cynomolgus monkeys (fasted or non-fasted, 3 each group) via oral gavage at 1 mg/kg. Blood samples (˜0.5 mL each time point) were collected via the jugular vein into tubes containing potassium ethylenediaminetetraacetic acid (K2EDTA) as the anticoagulant at 0.033, 0.083, 0.25, 0.5, 1, 2, 4, 8 and 24 hours post dose for IV administration and 0.083, 0.25, 0.5, 1, 2, 4, 8 and 24 hours post dose for PO administration. The blood samples were then centrifuged for 10 minutes in a centrifuge refrigerated at 2-8° C. The resultant plasma samples were analyzed using LC/MS/MS to determine concentrations of B-1. Non-compartmental model with WinNonlin (Phoenix™, version 6.1) software was used to calculate pharmacokinetic (PK) parameters.

in vivo [12] = conditions: male, cynomolgus monkey, iv, 0.25 mg/kg
Procedure: as §2

[13] = Toxicity study, oral gavage once daily for 7 days; format: in vivo, Sprague Dawley (SD) rats
Procedure: A toxicity study of C-1 was conducted in Sprague Dawley (SD) rats. C-1 at 20, 100 and 500 mg/kg or vehicle (0.5% w/v CMC-Na and 0.1% v/v Tween-80 in DI water) was administered via oral gavage to Sprague Dawley rats (7-9 weeks, about 250-300 grams each for males and about 200-250 grams each for females) once daily for 7 days. 8 females and 8 males in each dose group were used.

[14] = Sprague-Dawley (SD), rat, IV 0.25 mg/kg
[15] = PO 1 mg/kg, fasted male cynomolgus monkeys
[16] = B/Florida/78/2015, MDCK cells, 5 days, read-out: EC50
[17] = B/Lee/40, MDCK cells, 5 days, read-out: EC50

Work on O=C1c2c(O)c(=O)ccn2N([C@@H]2c3ccccc3SCc3c2ccc(F)c3F)[C@@H]2COCCN12 [Baloxavir acid, reference compound] yielded an EC50 (A/Hongkong/8/68 (H3N2)) of 0.0017 µM, a CC50 (in vitro) of 12 µM and an EC50 (B/Florida/78/2015; MDCK) of 0.016 µM. The IC50 [1] was 0.014 µM, the oral availability [2] was “poor oral availability” and the EC50 (IFV A/WSN/33 (H1N1)) was 0.00044 µM. The EC50 (B/Lee/40; MDCK) was 0.0063 µM, the EC50 (IFV A/PR/8/34 (H1N1)) was 0.00073 µM and the EC50 [3] was 0.00066 µM.

With O=C1c2c(O)c(=O)ccn2N(C2c3ccccc3[Se]Cc3c2ccc(F)c3F)C2COCCN12 (single isomer, unassigned) [Compound A-1-P1, 12-(7,8-Difluoro-6,11-Dihydrodibenzo[b,e]Selenepin-11-yl)-7-Hydroxy-3,4,12,12a-Tetrahydro-1H-[1,4]Oxazino[3,4-c]Pyrido[2,1-f][1,2,4]Triazine-6,8-Dione] the IC50 [1] was 0.042 µM.

In the case of COC(=O)OCOc1c2n(ccc1=O)N([C@@H]1c3ccccc3SCc3c1ccc(F)c3F)[C@@H]1COCCN1C2=O [baloxavir marboxil], the oral availability [2] is listed as “poor oral availability”.

Work on CP(C)(=O)c1cn2c(c(O)c1=O)C(=O)N1CCOCC1N2C1c2ccccc2SCc2c1ccc(F)c2F (single isomer, unassigned) [Compound E-1a, 12-(7,8-difluoro-6,11-dihydrodibenzo[b,e]thiepin-11-yl)-9-(dimethylphosphoryl)-7-hydroxy-3,4,12,12a-tetrahydro-1H-[1,4]oxazino[3,4-c]pyrido[2,1-f][1,2,4]triazine-6,8-dione] yielded an IC50 [1] of 0.031 µM.

Work on O=C1c2c(O)c(=O)ccn2N(C2c3ccccc3[Se]Cc3c2ccc(F)c3F)C2COCCN12 (single isomer, unassigned) [Compound A-1-P2, 12-(7,8-Difluoro-6,11-Dihydrodibenzo[b,e]Selenepin-11-yl)-7-Hydroxy-3,4,12,12a-Tetrahydro-1H-[1,4]Oxazino[3,4-c]Pyrido[2,1-f][1,2,4]Triazine-6,8-Dione] yielded a half-life [4] of 1.42 h, a microsomal CLint [4] of 16 µL/min/mg and a half-life [5] of 4.77 h. It also gave a microsomal CLint [5] of 5.2 µL/min/mg, an IC50 [1] of 0.025 µM and a half-life [6] of 60.9 h. It also gave a microsomal CLint [6] of 2.2 µL/min/mg, a half-life [7] of 2.88 h and a microsomal CLint [7] of 8.3 µL/min/mg. For the same compound, the half-life [8] was 6.25 h and the microsomal CLint [8] was 4.5 µL/min/mg.

For O=C1c2c(O)c(=O)ccn2N([C@@H]2c3ccccc3[Se]Cc3c2ccc(F)c3F)[C@@H]2COCCN12 [Compound B-1, (R)-12-((S)-7,8-Difluoro-6,11-Dihydrodibenzo[b,e]Selenepin-11-yl)-7-Hydroxy-3,4,12,12a-Tetrahydro-1H-[1,4]Oxazino[3,4-c]Pyrido[2,1-f][1,2,4]Triazine-6,8-Dione], the AUClast ([9]; IV 1 mg/kg) was 601, the AUClast ([9]; PO 10 mg/kg) was 2129 and the antivirus activity (influenza virus) was “potent antivirus activity”. It also gave an EC50 (A/Hongkong/8/68 (H3N2)) of 0.00068 µM, a CC50 (in vitro) of 13 µM and an EC50 (B/Florida/78/2015; MDCK) of 0.025 µM. The IC50 [1] was 0.015 µM, the AUClast (Pharmacokinetics in Rats; IV 0.25 mg/kg) was 84 and the AUClast (Pharmacokinetics in Rats; PO 3 mg/kg) was 123. It also gave an AUC(0-inf) (Pharmacokinetics in Rats; [14]) of 92 ng·h/mL, a half-life (Pharmacokinetics in Rats; [14]) of 4 h and an EC50 (IFV A/WSN/33 (H1N1)) of 0.00032 µM. For the same compound, the EC50 (B/Lee/40; MDCK) was 0.012 µM, the EC50 (IFV A/PR/8/34 (H1N1)) was 0.0011 µM and the AUC(0-inf) (in vivo [10]) was 608 ng·h/mL. For the same compound, the half-life (in vivo [10]) was 4.1 h, the “antivirus efficacy in influenza virus PR/8/34 mouse model” value (influenza virus PR/8/34) was “potent antivirus efficacy; also recorded: potent antivirus activity” and the survival (influenza virus PR/8/34; mouse, po) was “survived throughout the study”. The body weight loss (influenza virus PR/8/34; mouse, po) was “minimal”, the EC50 (A/Weiss/43 (H1N1)) was 0.0012 µM and the EC50 [3] was 0.00037 µM. For the same compound, the AUClast ([11]; IV 0.25 mg/kg, non-fasted male cynomolgus monkeys) was 204, the AUClast [11, 15] was 231 and the AUC(0-inf) (in vivo [12]) was 257 ng·h/mL. The half-life (in vivo [12]) was 11 h and the cytotoxicity (MDCK cells) was “little cytotoxicity”.

Work on CP(C)(=O)c1cn2c(c(O)c1=O)C(=O)N1CCOC[C@H]1N2[C@@H]1c2ccccc2SCc2c1ccc(F)c2F [Compound E-1c, (R)-12-((S)-7,8-difluoro-6,11-dihydrodibenzo[b,e]thiepin-11-yl)-9-(dimethylphosphoryl)-7-hydroxy-3,4,12,12a-tetrahydro-1H-[1,4]oxazino[3,4-c]pyrido[2,1-f][1,2,4]triazine-6,8-dione] yielded an EC50 (A/Hongkong/8/68 (H3N2)) of 0.207 µM, a CC50 (in vitro) greater than 100 µM and an EC50 (B/Florida/78/2015; [16]) greater than 1 µM. It also gave an EC50 (IFV A/WSN/33 (H1N1)) of 0.058 µM, an EC50 (B/Lee/40; [17]) greater than 1 µM and an EC50 (IFV A/PR/8/34 (H1N1)) of 0.068 µM. For the same compound, the EC50 (A/Weiss/43 (H1N1)) was 0.133 µM and the EC50 [3] was 0.129 µM.

CCP(=O)(CC)c1cn2c(c(O)c1=O)C(=O)N1CCOC[C@H]1N2[C@@H]1c2ccccc2SCc2c1ccc(F)c2F [Compound F-1, (R)-9-(Diethylphosphoryl)-12-((S)-7,8-Difluoro-6,11-Dihydrodibenzo[b,e]-Thiepin-11-yl)-7-Hydroxy-3,4,12,12a-Tetrahydro-1H-[1,4]Oxazino[3,4-c]Pyrido[2,1-f][1,2,4]Triazine-6,8-Dione] gave an EC50 (A/Hongkong/8/68 (H3N2)) of 0.31 µM, a CC50 (in vitro) greater than 100 µM and an EC50 (B/Florida/78/2015; [16]) greater than 1 µM. For the same compound, the EC50 (IFV A/WSN/33 (H1N1)) was 0.057 µM, the EC50 (B/Lee/40; [17]) was greater than 1 µM and the EC50 (IFV A/PR/8/34 (H1N1)) was greater than 0.1 µM. It also gave an EC50 (A/Weiss/43 (H1N1)) of 0.022 µM and an EC50 [3] of 0.125 µM.

For CCOC(=O)C1=C[C@@H](OC(CC)CC)[C@H](NC(C)=O)[C@@H](N)C1 [oseltamivir, reference compound], the “improvement in body weight loss” value (influenza virus PR/8/34; mouse, po) was “did not result in substantial improvement” and the mice died (influenza virus PR/8/34; mouse, po) was 60%.

Work on CP(C)(=O)c1cn2c(c(O)c1=O)C(=O)N1CCOCC1N2C1c2ccccc2SCc2c1ccc(F)c2F (single isomer, unassigned) [Compound E-1b, 12-(7,8-difluoro-6,11-dihydrodibenzo[b,e]thiepin-11-yl)-9-(dimethylphosphoryl)-7-hydroxy-3,4,12,12a-tetrahydro-1H-[1,4]oxazino[3,4-c]pyrido[2,1-f][1,2,4]triazine-6,8-dione] yielded an IC50 [1] of 0.032 µM.

In the case of COC(=O)OCOc1c2n(ccc1=O)N(C1c3ccccc3[Se]Cc3c1ccc(F)c3F)[C@@H]1COCCN1C2=O (some centres unmarked) [Compound C-1], the AUClast ([9]; PO 10 mg/kg) is reported as 2834, the MTD at 7 days ([13]; both sexes, Sprague Dawley, rat, in vivo, oral gavage once daily for 7 days, read-out: maximum tolerated dose (MTD)) is reported as greater than 500 mg/kg/day and the “toxic findings (clinical observation, body weight, food consumption, gross pathology)” value ([13]; in words, 20, 100 and 500 mg/kg oral gavage once daily for 7 days) is reported as “No C-1-related toxic findings”. The tolerability ([13]; in words, oral gavage once daily for 7 days) was “well tolerated”, the IC50 [1] was 1.55 µM and the AUClast (Pharmacokinetics in Rats; PO 3 mg/kg) was 280. The “antivirus efficacy in influenza virus PR/8/34 mouse model” value (influenza virus PR/8/34) was “potent antivirus activity”, the “improvement in body weight loss” value (influenza virus PR/8/34; mouse, po) was “significant dose-dependent improvement” and the survival (influenza virus PR/8/34; mouse, po) was “survived throughout the study”. For the same compound, the body weight loss (influenza virus PR/8/34; mouse, po) was “minimal”, the AUClast [11, 15] was 414 and the AUClast ([11]; PO 1 mg/kg, non-fasted male cynomolgus monkeys) was 400. For the same compound, the “food effect / impact of feeding condition on oral absorption” value ([11]; in words, cynomolgus monkeys, fasted vs non-fasted) was “did not impact oral absorption”.

Compound CCC(CC)O[C@@H]1C=C(C(=O)O)C[C@H](N)[C@H]1NC(C)=O [Oseltamivir acid, reference compound] has an EC50 (A/Hongkong/8/68 (H3N2)) of 0.02 µM, a CC50 (in vitro) greater than 100 µM and an EC50 (B/Florida/78/2015; [16]) of 8.48 µM. The EC50 (IFV A/WSN/33 (H1N1)) was greater than 100 µM, the EC50 (B/Lee/40; [17]) was 0.749 µM and the EC50 (IFV A/PR/8/34 (H1N1)) was greater than 100 µM. The EC50 (A/Weiss/43 (H1N1)) was 0.476 µM and the EC50 [3] was 0.231 µM.
